From the supplement of paper PMC8671470

How the values were obtained:
Details in all cases: 72 h
[1] = system: HL-60; test: cell viability (% survival relative to DMSO control); higher = less cytotoxic
Procedure, shortened: (§1)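 In 384-well plates, the full library was rescreened in duplicate on HL-60 cells in RPMI 1640 with 10% FBS, at 1–10,000 nM in five tenfold concentrations, for 72 h at 37 °C, 5% CO2. Each run also held DMSO or 100 nM of one of three metabolic inhibitors. Viability was measured by CellTiter-Glo and normalised to DMSO wells and to wells with proteasome inhibitor, present at 10 μM. Any area under the curve comes from four-parameter log-logistic fitting with drc and PharmacoGx.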

[2] = system: HL-60; test: area under dose-response curve (viability, 1 nM-10 uM) (fraction (0-1)); higher = more sensitive
Procedure, shortened: as §1

[3] = system: KCL-22
Procedure, shortened: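 Each of fifteen myeloid leukaemia cell lines was seeded in RPMI 1640 at a density titrated to its linear growth range. The cells were incubated for 72 h at 37 °C and 5% CO2 with compounds at five tenfold doses from 1 to 10,000 nM, in duplicate. After ATP luminescence was normalised to vehicle and to a positive control at 10 µM, four-parameter log-logistic curves were fitted. These curves gave the IC50.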

[4] = system: KG-1; test: cell viability (% survival relative to DMSO control, bortezomib = 0%); higher = less cytotoxic
Procedure, shortened: (§2)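 Percent survival figures are means of duplicate wells. They were obtained by CellTiter-Glo luminescence after 10 AML and 5 CML cell lines spent 72 h at 37 °C with 5% CO2 in 384-well plates with compounds at 1, 10, 100, 1000 or 10000 nM. Vehicle was set to 100% and a 10 µM positive control to 0%.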

[5] = system: HL-60; test: as above
Procedure, shortened: as §2

[6] = system: LAMA-84; test: as above
Procedure, shortened: as §2

[7] = system: KCL-22; test: as above
Procedure, shortened: as §2

[8] = system: ML-2; test: as above
Procedure, shortened: as §2

[9] = system: K-562; test: as above
Procedure, shortened: as §2

[10] = system: HEL; test: as above
Procedure, shortened: as §2

[11] = system: SHI-1; test: as above
Procedure, shortened: as §2

[12] = system: THP-1; test: as above
Procedure, shortened: as §2

[13] = system: MOLM-13; test: as above
Procedure, shortened: as §2

[14] = system: MV4-11; test: as above
Procedure, shortened: as §2

[15] = system: BV-173; test: as above
Procedure, shortened: as §2

[16] = system: NOMO-1; test: as above
Procedure, shortened: as §2

[17] = system: KU-812; test: as above
Procedure, shortened: as §2

[18] = system: Mono-Mac-6; test: as above
Procedure, shortened: as §2

CCCCCCCCCCCCC/C=C/[C@@H](O)[C@H](CO)N(C)C [N,N-Dimethylsphingosine]
cell viability [%], [1]
Details | 0.001 µM | 0.01 µM | 0.1 µM | 1 µM | 10 µM
co-treatment: AZD3965 100 nM | 95.3 | 103 | 100 | 100.26 | -1.76
co-treatment: DMSO vehicle | 98.6 | 98.5 | 102 | 97.42 | 54.1
co-treatment: GSK2194069 100 nM | 90.2 | 98.3 | 103 | 97.23 | 86.6
co-treatment: pictilisib 100 nM | 87.6 | 112 | 106 | 96.1 | 62.7

Details | area under dose-response curve, co-treatment: AZD3965 100 nM | area under dose-response curve, co-treatment: DMSO vehicle | area under dose-response curve, co-treatment: GSK2194069 100 nM | area under dose-response curve, co-treatment: pictilisib 100 nM | cell viability, 1 nM [%] | cell viability, 10 nM [%] | cell viability, 100 nM [%] | cell viability, 1000 nM [%] | cell viability, 10000 nM [%]
[2] | 0.132 | 0.132 | < 0.0301 | 0.0441 | – | – | – | – | –
[4] | – | – | – | – | 92.2 | 96.8 | 101 | 82.7 | 37.4
[5] | – | – | – | – | 90.6 | 84.7 | 100 | 105 | 88.9
[6] | – | – | – | – | 101 | 96.7 | 106 | 91.3 | 93.3
[7] | – | – | – | – | 95.8 | 98 | 101 | 91.3 | 1.85
[8] | – | – | – | – | 95.1 | 96.8 | 97.7 | 107 | -0.179
[9] | – | – | – | – | 97.4 | 95.2 | 103 | 104 | 85.6
[10] | – | – | – | – | 96.2 | 94.6 | 103 | 96.2 | 0.109
[11] | – | – | – | – | 101 | 97.8 | 104 | 97.8 | 83.8
[12] | – | – | – | – | 97.5 | 100 | 105 | 89.7 | 61.7
[13] | – | – | – | – | 97.3 | 96.5 | 86.2 | 104 | 71.1
[14] | – | – | – | – | 94.2 | 102 | 95 | 117 | 95.8
[15] | – | – | – | – | 93 | 89.7 | 98.7 | 74.2 | 22.5
[16] | – | – | – | – | 92 | 101 | 100 | 94.1 | 85.8
[17] | – | – | – | – | 101 | 90.5 | 103 | 102 | 55
[18] | – | – | – | – | 95.1 | 91.7 | 97.9 | 89.4 | 70

Details | IC50 (cell viability) [µM]
[3] | 2.78

OCCN1C[C@H](O)[C@@H](O)[C@H](O)[C@H]1CO [Miglitol]
cell viability [%], [1]
Details | 0.001 µM | 0.01 µM | 0.1 µM | 1 µM | 10 µM
co-treatment: AZD3965 100 nM | 100.7 | 103.6 | 94.8 | 102 | 100.28
co-treatment: DMSO vehicle | 96 | 101 | 96.3 | 94.9 | 99.54
co-treatment: GSK2194069 100 nM | 99.52 | 109 | 91.7 | 97.8 | 109
co-treatment: pictilisib 100 nM | 97.8 | 104 | 86.9 | 98.1 | 106

Details | area under dose-response curve, co-treatment: AZD3965 100 nM | area under dose-response curve, co-treatment: DMSO vehicle | area under dose-response curve, co-treatment: GSK2194069 100 nM | area under dose-response curve, co-treatment: pictilisib 100 nM | cell viability, 1 nM [%] | cell viability, 10 nM [%] | cell viability, 100 nM [%] | cell viability, 1000 nM [%] | cell viability, 10000 nM [%]
[2] | < 0.0301 | < 0.0301 | < 0.0301 | < 0.0301 | – | – | – | – | –
[4] | – | – | – | – | 101 | 95.7 | 91.9 | 94.7 | 101
[5] | – | – | – | – | 86.9 | 95.7 | 93.1 | 105 | 87.2
[6] | – | – | – | – | 97 | 97.8 | 101 | 98.5 | 93.6
[7] | – | – | – | – | 91.5 | 108 | 96.6 | 95.9 | 106
[8] | – | – | – | – | 95.4 | 104 | 89.3 | 96 | 105
[9] | – | – | – | – | 97.8 | 98.5 | 83.5 | 108 | 102
[10] | – | – | – | – | 107 | 101 | 86.5 | 96.7 | 101
[11] | – | – | – | – | 102 | 109 | 105 | 92.8 | 103
[12] | – | – | – | – | 102 | 106 | 100 | 95.9 | 101
[13] | – | – | – | – | 92.1 | 91.3 | 93 | 123 | 99.1
[14] | – | – | – | – | 102 | 97 | 90.4 | 106 | 106
[15] | – | – | – | – | 90.6 | 110 | 89.7 | 94.6 | 105
[16] | – | – | – | – | 98.2 | 102 | 100 | 93.7 | 98.5
[17] | – | – | – | – | 101 | 103 | 86.9 | 98.3 | 96
[18] | – | – | – | – | 106 | 102 | 98.1 | 91.3 | 99.1

Details | IC50 (cell viability) [µM]
[3] | > 10

C=C1C(=O)O[C@H](CCCCCCCC)[C@H]1C(=O)O [C75]
cell viability [%], [1]
Details | 0.001 µM | 0.01 µM | 0.1 µM | 1 µM | 10 µM
co-treatment: AZD3965 100 nM | 108 | 91.5 | 107 | 97.8 | 102
co-treatment: DMSO vehicle | 105 | 99.5 | 101.8 | 102 | 102
co-treatment: GSK2194069 100 nM | 96 | 88.2 | 102 | 100 | 111
co-treatment: pictilisib 100 nM | 103 | 90.9 | 105 | 103 | 98.9

Details | area under dose-response curve, co-treatment: AZD3965 100 nM | area under dose-response curve, co-treatment: DMSO vehicle | area under dose-response curve, co-treatment: GSK2194069 100 nM | area under dose-response curve, co-treatment: pictilisib 100 nM | cell viability, 1 nM [%] | cell viability, 10 nM [%] | cell viability, 100 nM [%] | cell viability, 1000 nM [%] | cell viability, 10000 nM [%]
[2] | < 0.0301 | < 0.0301 | < 0.0301 | < 0.0301 | – | – | – | – | –
[4] | – | – | – | – | 102 | 81.1 | 112 | 115 | 114
[5] | – | – | – | – | 89.1 | 80.8 | 106 | 86 | 120
[6] | – | – | – | – | 92.2 | 102 | 101 | 104 | 106
[7] | – | – | – | – | 112 | 86.8 | 108 | 110 | 134
[8] | – | – | – | – | 115 | 90.1 | 108 | 110 | 112
[9] | – | – | – | – | 107 | 98.3 | 101 | 108 | 111
[10] | – | – | – | – | 101 | 95.7 | 105 | 111 | 121
[11] | – | – | – | – | 105 | 98.5 | 108 | 100 | 100
[12] | – | – | – | – | 111 | 94.7 | 111 | 108 | 102
[13] | – | – | – | – | 102 | 95.2 | 106 | 99.3 | 137
[14] | – | – | – | – | 106 | 98.1 | 103 | 85.9 | 116
[15] | – | – | – | – | 106 | 94 | 109 | 107 | 105
[16] | – | – | – | – | 108 | 99.7 | 113 | 100 | 109
[17] | – | – | – | – | 95 | 97.6 | 105 | 102 | 106
[18] | – | – | – | – | 98.1 | 99.9 | 103 | 94.4 | 98.9

Details | IC50 (cell viability) [µM]
[3] | > 10
